Our source for the EC50 values is US10562893B2, “Benzimidazoles derivatives as Tec kinases family inhibitors” (GB005, Inc., priority 2015, dated 2020).

SMILES strings stand for the structures. pEC50: −log10 of the molar value. Bounds are passed on as bounds.

For one assay, the system named is Human PBMCs. As to the kind of experiment: CD3/CD28 mediated PBMC proliferation assay. Type of assay: cell-based. The note with it: proliferation of human PBMCs stimulated with anti-CD3 and anti-CD28, 72 hours, Cell Titer-Glo. As for the experimental part:
Inhibition of cellular ITK was assessed by measuring proliferation of PBMCs following stimulation with anti-CD3 and anti-CD28 antibodies. Individual wells of 96 well tissue culture plates were coated with 50 μL of 5 μg/mL anti-CD3 (OKT3, eBiosciences) for 2 hours at 37° C. Human PBMCs (Stemcell Technologies catalog #70025.3) were plated in 96-well plates at a final concentration of 9.2×10e5 cells/mL in complete media (RPMI, 10% heat inactivated FBS, 55 uM β-mercaptoethanol) and pre-treated with compound curves for 30 minutes at 37° C., 5% CO2. Pre-treated cells plus compounds were transferred to washed anti-CD3 coated plates. Soluble anti-CD28 (CD28.2 eBiosciences) was added to each well at a final concentration of 2 μg/mL. The cells were placed in a humidified 37° C. incubator with 5% CO2 for 72 hours and metabolic viability was measured by quantification of ATP levels with Cell Titer-Glo (Promega catalog # G9242). Controls included unstimulated cells and vehicle alone. EC50 values (50% proliferation in the presence of compound as compared to vehicle treated controls) were calculated from dose response compound curves using GraphPad Prism Software.
For orientation: Cellular ATP, detected with luciferase, serves as a proxy for viable cell number.

The test system of assay [1] is Jurkat human acute T cell leukemia cells. The experiment in a line: Jurkat IL-2 release assay. Type of assay: cell-based. The note with it: IL-2 release from Jurkat cells stimulated with anti-CD3 and anti-CD28, 48 hours, ELISA. As to the method:
Inhibition of cellular ITK was assessed by measuring release of IL-2 following stimulation with anti-CD3 and anti-CD28 antibodies. Individual wells of 96 well tissue culture plates were coated with 50 μL of 10 μg/mL anti-CD3 (OKT3, eBiosciences) for 2 hours at 37° C. Jurkat human acute T cell leukemia cells (ATCC) were plated in 96-well plates at a final concentration of 9.2×10e5 cells/mL in complete media (RPMI, 10% FBS, 1.5 g/L sodium bicarbonate, 10 mM Hepes, 1 mM sodium pyruvate, 4.5 g/L glucose) and pre-treated with compound curves for 30 minutes at 37° C., 5% CO2. Pre-treated cells plus compounds were transferred to washed anti-CD3 coated plates. Soluble anti-CD28 (CD28.2 eBiosciences) was added to each well at a final concentration of 1 μg/mL. The cells were placed in a humidified 37° C. incubator with 5% CO2 for 48 hours and IL-2 release was measured using a commercial ELISA (BD Bioscience catalog #555190). Controls included unstimulated cells and vehicle alone. EC50 values (50% IL-2 release in the presence of compound as compared to vehicle treated controls) were calculated from dose response compound curves using GraphPad Prism Software.
Background: An ELISA detects its analyte on a solid surface through an enzyme-linked reagent.

For the molecule `C=CC(=O)Nc1ccc(-n2c(NC(=O)c3ccc(C(F)F)s3)nc3cc(CN[C@@H](C)C(C)(C)C)ccc32)cc1` [Compound 4], the figures for the pEC50 (with Human PBMCs; in assay [1]) were below 7.00 and 7.00 to 8.00, respectively.

`C=CC(=O)Nc1cccc(-n2c(NC(=O)c3cccs3)nc3cc(CN[C@@H](C)C(C)(C)C)ccc32)c1` [Compound 13]: the negative logarithm of the EC50 (pEC50) (in the assay on Human PBMCs; in assay [1]) was 7.00 to 8.00 in each case.

As for `C=CC(=O)Nc1cccc(-n2c(NC(=O)c3ccc(OCc4ccccc4)cc3)nc3cc(CN[C@@H](C)C(C)(C)C)ccc32)c1` [Compound 37], the negative logarithm of the EC50 (pEC50) (in the assay on Human PBMCs; in assay [1]) was below 7.00 throughout.

On to `C[C@H](NCc1ccc2c(c1)nc(NC(=O)c1ccc(C(F)F)s1)n2-c1cccc(NC(=O)/C=C/CN(C)C)c1)C(C)(C)C` [Compound 78], for which the pEC50 (usually −log10 of the EC50, conventionally taken in molar units) in the assay on Human PBMCs is below 7.00; in assay [1] it was 7.00 to 8.00.

`C=CC(=O)Nc1cccc(-n2c(NC(=O)c3ccc(C(F)F)s3)nc3cc(CN[C@@H](CO)C(C)(C)C)ccc32)c1` [Compound 22]: the pEC50 (with Human PBMCs; in assay [1]) was above 8.00 in each case.

`C=CC(=O)Nc1cccc(-n2c(NC(=O)c3cccc(F)c3)nc3cc(CN[C@@H](C)C(C)(C)C)ccc32)c1` [Compound 7]: the pEC50 (with Human PBMCs; in assay [1]) was 7.00 to 8.00 throughout.

On to `C=CC(=O)Nc1cccc(-n2c(NC(=O)c3ccc(C(F)F)s3)nc3cc(CNCC(C)(C)CO)ccc32)c1` [Compound 29], for which the pEC50 (in the assay on Human PBMCs; in assay [1]) was above 8.00 throughout.

For the molecule `C=CC(=O)Nc1cccc(-n2c(NC(=O)c3ccc(C(F)F)s3)nc3cc(CNCC)ccc32)c1` [Compound 40], the results for the pEC50 (in the assay with Human PBMCs; in assay [1]) were above 8.00 and 7.00 to 8.00, respectively.

For `C=CC(=O)N(C)c1cccc(-n2c(NC(=O)c3ccc(C(F)F)s3)nc3cc(CN[C@@H](C)C(C)(C)C)ccc32)c1` [Compound 5], the pEC50 in the assay on Human PBMCs is 7.00 to 8.00; in assay [1], above 8.00.

For `C=CC(=O)Nc1cccc(-n2c(NC(=O)c3ccns3)nc3cc(CN4CCOCC4)ccc32)c1` [Compound 73], the pEC50 in the assay on Human PBMCs was 7.00 to 8.00; in assay [1], above 8.00.

For the molecule `C=CC(=O)N(C)[C@H]1C[C@@H](n2c(NC(=O)c3ccc(C(F)F)s3)nc3cc(CN[C@@H](C)C(C)(C)C)ccc32)C1` [Compound 6], the pEC50 with Human PBMCs is 7.00 to 8.00; in assay [1], above 8.00.

Turning to `C=CC(=O)Nc1cccc(-n2c(NC(=O)c3ccc(OC)cc3)nc3cc(CN[C@@H](C)C(C)(C)C)ccc32)c1` [Compound 24], the pEC50 (with Human PBMCs; in assay [1]) was below 7.00 throughout.

For `C=CC(=O)Nc1cccc(-n2c(NC(=O)c3ccc(C(F)F)s3)nc3cc(CN[C@H](C)C(C)(C)C)ccc32)c1` [Compound 30], the figures for the pEC50 (in the assay with Human PBMCs; in assay [1]) were above 8.00 and 7.00 to 8.00, respectively.

In the case of `C=CC(=O)Nc1cccc(-n2c(NC(=O)c3ccc(C(F)F)s3)nc3cc(CNCCCO)ccc32)c1` [Compound 39], the pEC50 in the assay with Human PBMCs was above 8.00; in assay [1], 7.00 to 8.00.

`C=CC(=O)Nc1cccc(-n2c(NC(=O)c3ccc(F)cc3)nc3cc(CN[C@@H](C)C(C)(C)C)ccc32)c1` [Compound 20]: the pEC50 with Human PBMCs was below 7.00; in assay [1], 7.00 to 8.00.

As for `C=CC(=O)Nc1cccc(-n2c(NC(=O)c3cncnc3)nc3cc(CN[C@@H](C)C(C)(C)C)ccc32)c1` [Compound 41], the pEC50 in the assay on Human PBMCs was 7.00 to 8.00; in assay [1], above 8.00.

In the case of `C=CC(=O)Nc1cccc(-n2c(NC(=O)c3ccc(C(F)F)s3)nc3cc(CN(C(C)=O)[C@@H](C)C(C)(C)C)ccc32)c1` [Compound 36], the pEC50 (in the assay with Human PBMCs; in assay [1]) was 7.00 to 8.00 throughout.

As to `C=CC(=O)Nc1cccc(-n2c(NC(=O)c3ccc(C(F)F)s3)nc3cc(N(C)S(C)(=O)=O)ccc32)c1` [Compound 80], the pEC50 (in the assay on Human PBMCs; in assay [1]) was 7.00 to 8.00 in each case.

Take `C=CC(=O)Nc1cccc(-n2c(NC(=O)c3cccc(O)c3)nc3cc(CN[C@@H](C)C(C)(C)C)ccc32)c1` [Compound 26]: the figures for the pEC50 (with Human PBMCs; in assay [1]) were below 7.00 and 7.00 to 8.00, respectively.

As for `C=CC(=O)Nc1cccc(-n2c(NC(=O)c3cccc(Cl)c3)nc3cc(CN[C@@H](C)C(C)(C)C)ccc32)c1` [Compound 15], the negative-log EC50 (pEC50) (with Human PBMCs; in assay [1]) was 7.00 to 8.00 throughout.

In the case of `C=CC(=O)Nc1cccc(-n2c(NC(=O)c3ccc(C(F)F)s3)nc3cc(CN4CCN(CCO)CC4)ccc32)c1` [Compound 59], the pEC50 (with Human PBMCs; in assay [1]) was above 8.00 in each case.

For `C=CC(=O)Nc1cccc(-n2c(NC(=O)c3ccno3)nc3cc(CN4CCOCC4)ccc32)c1` [Compound 76], the negative-log EC50 (pEC50) in the assay with Human PBMCs is 7.00 to 8.00; in assay [1], above 8.00.

Regarding `C=CC(=O)Nc1cc(-n2c(NC(=O)c3ccc(C(F)F)s3)nc3cc(CN[C@@H](C)C(C)(C)C)ccc32)ccc1F` [Compound 34], the pEC50 (with Human PBMCs; in assay [1]) was below 7.00 in each case.

Turning to `C=CC(=O)Nc1cccc(-n2c(NC(=O)c3cccc(OC)c3)nc3cc(CN[C@@H](C)C(C)(C)C)ccc32)c1` [Compound 8], the pEC50 with Human PBMCs is below 7.00; in assay [1] it was 7.00 to 8.00.

Consider `C=CC(=O)N1CCOc2ccc(-n3c(NC(=O)c4ccc(C(F)F)s4)nc4cc(CN[C@@H](C)C(C)(C)C)ccc43)cc21` [Compound 57], for which the pEC50 (in the assay with Human PBMCs; in assay [1]) was 7.00 to 8.00 in each case.

With `C=CC(=O)Nc1cccc(-n2c(NC(=O)c3ccc(C(F)F)s3)nc3cc(CNC4CCCCC4)ccc32)c1` [Compound 14], the pEC50 was 7.00 to 8.00 in the assay on Human PBMCs and above 8.00 in assay [1].

In the case of `C=CC(=O)N[C@H]1CC[C@@H](n2c(NC(=O)c3ccc(C#N)cc3)nc3cc(CN[C@@H](C)C(C)(C)C)ccc32)CC1` [Compound 54], the pEC50 (in the assay on Human PBMCs; in assay [1]) was below 7.00 throughout.

Regarding `CC#CC(=O)Nc1cccc(-n2c(NC(=O)c3ccc(C(F)F)s3)nc3cc(CN[C@@H](C)C(C)(C)C)ccc32)c1` [Compound 72], the results for the pEC50 (in the assay on Human PBMCs; in assay [1]) were below 7.00 and 7.00 to 8.00, respectively.

Turning to `C=CC(=O)Nc1ccc(F)c(-n2c(NC(=O)c3ccc(C(F)F)s3)nc3cc(CN[C@@H](C)C(C)(C)C)ccc32)c1` [Compound 33], the negative logarithm of the EC50 (pEC50) (with Human PBMCs; in assay [1]) was above 8.00 in each case.

Regarding `C=CC(=O)Nc1cccc(-n2c(NC(=O)c3ccc(Cl)cc3)nc3cc(CN[C@@H](C)C(C)(C)C)ccc32)c1` [Compound 10], the pEC50 (with Human PBMCs; in assay [1]) was 7.00 to 8.00 throughout.

Turning to `C=CC(=O)Nc1cccc(-n2c(NC(=O)c3ccc(C(F)F)s3)nc3cc(CN4CCCC4)ccc32)c1` [Compound 32], the pEC50 (in the assay with Human PBMCs; in assay [1]) was above 8.00 throughout.

In the case of `C=C(F)C(=O)Nc1cccc(-n2c(NC(=O)c3ccc(C(F)F)s3)nc3cc(CN[C@@H](C)C(C)(C)C)ccc32)c1` [Compound 84], the pEC50 (with Human PBMCs; in assay [1]) was 7.00 to 8.00 each time.

In the case of `C=CC(=O)Nc1cccc(-n2c(NC(=O)c3cnc(C(C)C)s3)nc3cc(CN[C@@H](C)C(C)(C)C)ccc32)c1` [Compound 82], the pEC50 in assay [1] is 7.00 to 8.00.

With `C=CC(=O)Nc1cccc(-n2c(NC(=O)c3ccc(C(F)F)s3)nc3cc(CN[C@@H](C)CC)ccc32)c1` [Compound 21], the pEC50 is above 8.00 with Human PBMCs and 7.00 to 8.00 in assay [1].

Take `C=CC(=O)Nc1cccc(-n2c(NC(=O)c3ccc(C(F)F)s3)nc3cc(CNCC(C)(C)C)ccc32)c1` [Compound 23]: the pEC50 (in the assay with Human PBMCs; in assay [1]) was above 8.00 in each case.

Take `C=CC(=O)Nc1cccc(-n2c(NC(=O)c3ccc(C(F)F)s3)nc3cc(CN[C@H]4CC[C@@H](O)CC4)ccc32)c1` [Compound 35]: the figures for the negative logarithm of the EC50 (pEC50) (in the assay on Human PBMCs; in assay [1]) were above 8.00 and 7.00 to 8.00, respectively.

Turning to `C=CC(=O)Nc1cccc(-n2c(NC(=O)c3ccc(C(F)F)s3)nc3cc(CO)ccc32)c1` [Compound 69], in the assay with Human PBMCs, the negative-log EC50 (pEC50) is 7.00 to 8.00.

As to `C=CC(=O)N[C@H]1CC[C@@H](n2c(NC(=O)c3ccns3)nc3cc(CN[C@@H](C)C(C)(C)C)ccc32)CC1` [Compound 67], the pEC50 is below 7.00 in the assay with Human PBMCs and 7.00 to 8.00 in assay [1].
